Several values for one entry are separate records, joined by “and”; a condition that tells them apart may be missing. Equal entries are not always repeated. Toxic doses and inconclusive results are not listed. Cut-off read from the data, not from the text of the source: active = T/C of 150% or more; inactive = T/C below 125%.
Test system: L1210 leukemia ip in BDF1 mice, survival T/C
Assay: NCI In Vivo Anticancer Drug Screen. Data for tumor model L1210 Leukemia (intraperitoneal) in B6D2F1 (BDF1) mice
Settings: endpoint: mean survival time, higher = longer survival
How it was run: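 Read-out is survival time, reported as the treated-group measurement over the vehicle-control measurement.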

[1] = dose: 100.0 mg/kg/injection, schedule: Q01DX009 (ip), vehicle: saline
[2] = dose: 200.0 mg/kg/injection, schedule: Q01DX009 (ip), vehicle: saline
[3] = dose: 100.0 mg/kg/injection, schedule: Q04DX002 (ip), vehicle: Klucel (hydroxypropylcellulose) (HPC)
[4] = dose: 400.0 mg/kg/injection, schedule: Q04DX002 (ip), vehicle: Klucel (hydroxypropylcellulose) (HPC)
[5] = dose: 50.0 mg/kg/injection, schedule: Q01DX009 (ip), vehicle: Klucel (hydroxypropylcellulose) (HPC)
[6] = dose: 100.0 mg/kg/injection, schedule: Q01DX009 (ip), vehicle: Klucel (hydroxypropylcellulose) (HPC)
[7] = dose: 200.0 mg/kg/injection, schedule: Q01DX009 (ip), vehicle: saline with Tween-80
[8] = dose: 100.0 mg/kg/injection, schedule: Q01DX001 (ip), vehicle: saline with Tween-80
[9] = dose: 200.0 mg/kg/injection, schedule: Q01DX001 (ip), vehicle: saline with Tween-80
[10] = dose: 400.0 mg/kg/injection, schedule: Q01DX001 (ip), vehicle: saline with Tween-80
[11] = dose: 100.0 mg/kg/injection, schedule: Q04DX003 (ip), vehicle: saline
[12] = dose: 200.0 mg/kg/injection, schedule: Q04DX003 (ip), vehicle: saline
[13] = dose: 400.0 mg/kg/injection, schedule: Q01DX009 (ip), vehicle: saline
[14] = dose: 400.0 mg/kg/injection, schedule: Q04DX003 (ip), vehicle: saline
[15] = dose: 100.0 mg/kg/injection, schedule: Q04DX003 (ip), vehicle: Klucel (hydroxypropylcellulose) (HPC)
[16] = dose: 200.0 mg/kg/injection, schedule: Q01DX009 (ip), vehicle: Klucel (hydroxypropylcellulose) (HPC)
[17] = dose: 200.0 mg/kg/injection, schedule: Q04DX003 (ip), vehicle: Klucel (hydroxypropylcellulose) (HPC)
[18] = dose: 400.0 mg/kg/injection, schedule: Q01DX009 (ip), vehicle: Klucel (hydroxypropylcellulose) (HPC)
[19] = dose: 400.0 mg/kg/injection, schedule: Q04DX003 (ip), vehicle: Klucel (hydroxypropylcellulose) (HPC)
[20] = dose: 50.0 mg/kg/injection, schedule: Q01DX009 (ip), vehicle: saline with Tween-80
[21] = dose: 100.0 mg/kg/injection, schedule: Q01DX009 (ip), vehicle: saline with Tween-80
[22] = dose: 75.0 mg/kg/injection, schedule: Q01DX001 (ip), vehicle: saline
[23] = dose: 150.0 mg/kg/injection, schedule: Q01DX001 (ip), vehicle: saline
[24] = dose: 100.0 mg/kg/injection, schedule: Q01DX001 (ip), vehicle: Klucel (hydroxypropylcellulose) (HPC)
[25] = dose: 200.0 mg/kg/injection, schedule: Q01DX001 (ip), vehicle: Klucel (hydroxypropylcellulose) (HPC)
[26] = dose: 400.0 mg/kg/injection, schedule: Q01DX001 (ip), vehicle: Klucel (hydroxypropylcellulose) (HPC)
[27] = dose: 100.0 mg/kg/injection, schedule: Q04DX002 (ip), vehicle: saline with Tween-80
[28] = dose: 200.0 mg/kg/injection, schedule: Q04DX002 (ip), vehicle: saline with Tween-80
[29] = dose: 400.0 mg/kg/injection, schedule: Q04DX002 (ip), vehicle: saline with Tween-80
[30] = dose: 100.0 mg/kg/injection, schedule: Q01DX001 (ip), vehicle: saline
[31] = dose: 200.0 mg/kg/injection, schedule: Q01DX001 (ip), vehicle: saline
[32] = dose: 400.0 mg/kg/injection, schedule: Q01DX001 (ip), vehicle: saline

Measured: T/C

COc1ccc(NC2=CC(=O)N(c3ccc(OC)cc3)C2=O)cc1
inactive: dose: 100.0 mg/kg/injection, schedule: Q04DX003 (ip), vehicle: other 86 % of control | dose: 200.0 mg/kg/injection, schedule: Q04DX003 (ip), vehicle: other 98 % of control | dose: 400.0 mg/kg/injection, schedule: Q04DX003 (ip), vehicle: other 98 % of control

C/C=N/NC(=O)c1ccc[n+](C)c1
inactive: dose: 50.0 mg/kg/injection, schedule: Q01DX009 (ip), vehicle: saline 93 % of control | [1] 96 % of control | [2] 96 % of control

CCCCCCCCCCCC(N)=O
inactive: dose: 100.0 mg/kg/injection, schedule: Q01DX001 (ip), vehicle: other 104 % of control | [3] 104 % of control | dose: 200.0 mg/kg/injection, schedule: Q01DX001 (ip), vehicle: other 93 % of control | dose: 200.0 mg/kg/injection, schedule: Q04DX002 (ip), vehicle: Klucel (hydroxypropylcellulose) (HPC) 110 % of control | dose: 400.0 mg/kg/injection, schedule: Q01DX001 (ip), vehicle: other 96 % of control | [4] 93 % of control

CC(=O)Nc1ccc([I+]c2ccc([N+](=O)[O-])cc2)cc1
inactive: dose: 6.25 mg/kg/injection, schedule: Q01DX009 (ip), vehicle: Klucel (hydroxypropylcellulose) (HPC) 90 % of control | dose: 12.5 mg/kg/injection, schedule: Q01DX009 (ip), vehicle: Klucel (hydroxypropylcellulose) (HPC) 98 % of control | dose: 25.0 mg/kg/injection, schedule: Q01DX009 (ip), vehicle: Klucel (hydroxypropylcellulose) (HPC) 104 % of control | [5] 106 % of control | [6] 101 % of control | [7] 109 % of control

O=C1c2ccccc2-c2cccc3ccc(C4CCCCC4)c1c23
inactive: [8] 88 % of control | [9] 88 % of control | [10] 92 % of control

Cc1ccc(CN2C(=O)C=CC2=O)cc1
inactive: dose: 12.5 mg/kg/injection, schedule: Q04DX002 (ip), vehicle: Klucel (hydroxypropylcellulose) (HPC) 102 % of control | dose: 25.0 mg/kg/injection, schedule: Q04DX002 (ip), vehicle: Klucel (hydroxypropylcellulose) (HPC) 102 % of control

CCOC(=O)C(OCc1ccccc1)(C(=O)OCC)C(C)C
inactive: [1] 97 % of control | [11] 96 % of control | [2] 101 % of control | [12] 102 % of control | [13] 106 % of control | [14] 108 % of control

CCCCNC(=O)c1ncccc1C(=O)O
inactive: dose: 100.0 mg/kg/injection, schedule: Q01DX001 (ip), vehicle: carboxymethylcellulose (CMC) 111 % of control | dose: 100.0 mg/kg/injection, schedule: Q04DX003 (ip), vehicle: carboxymethylcellulose (CMC) 102 % of control | dose: 200.0 mg/kg/injection, schedule: Q01DX001 (ip), vehicle: carboxymethylcellulose (CMC) 103 % of control | dose: 200.0 mg/kg/injection, schedule: Q04DX003 (ip), vehicle: carboxymethylcellulose (CMC) 95 % of control | dose: 400.0 mg/kg/injection, schedule: Q01DX001 (ip), vehicle: carboxymethylcellulose (CMC) 97 % of control

O=C(O)CC1CCCCC1c1ccccc1 (stereo unspecified)
inactive: [6] 98 % of control | [15] 96 % of control | [16] 100 % of control | [17] 106 % of control | [18] 87 % of control | [19] 95 % of control

COc1ccc(NC(=O)Oc2ccc(F)cc2)c(OC)c1
inactive: [6] 89 % of control | [16] 101 % of control | [18] 94 % of control

CCOc1ccccc1NC(=S)Nc1ccc([N+](=O)[O-])cc1
inactive: [20] 92 % of control | [21] 92 % of control | [7] 95 % of control

CN(Cc1ccccc1)C(=O)c1ccc(Cl)cc1
inactive: [6] 111 % of control | [3] 101 % of control | [16] 105 % of control | [18] 100 % of control | [4] 89 % of control

CCOC(=O)CN1C(=O)NC(CC)(CC)C1=O
inactive: [1] 96 % of control | dose: 100.0 mg/kg/injection, schedule: Q04DX003 (ip), vehicle: acetone 104 % of control | [2] 94 % of control | dose: 200.0 mg/kg/injection, schedule: Q04DX003 (ip), vehicle: acetone 107 % of control | [13] 105 % of control | dose: 400.0 mg/kg/injection, schedule: Q04DX003 (ip), vehicle: acetone 102 % of control

CN(C(=O)CCCCl)c1cc([N+](=O)[O-])ccc1OCc1ccccc1
inactive: [22] 103 % of control | [23] 104 % of control | dose: 300.0 mg/kg/injection, schedule: Q01DX001 (ip), vehicle: saline 103 % of control

COC1OC(COC(C)=O)C(OC(C)=O)C(NC(=O)NCCCl)C1OC(C)=O (stereo unspecified)
inactive: [24] 105 % of control | [25] 102 % of control | [26] 102 % of control

Cc1ccc(/C(C#N)=C/c2cccc([N+](=O)[O-])c2)cc1
inactive: [27] 95 % of control | [28] 88 % of control | [29] 98 % of control

C[N+]1(C)CC2CCCCC1C2O (stereo unspecified)
inactive: [22] 108 % of control | [23] 104 % of control

CCOC(=O)c1ccc(NC(=O)Nc2ccc(OC)cc2OC)cc1
inactive: dose: 12.5 mg/kg/injection, schedule: Q01DX009 (ip), vehicle: saline with Tween-80 94 % of control and 95 % of control | dose: 25.0 mg/kg/injection, schedule: Q01DX009 (ip), vehicle: saline with Tween-80 94 % of control and 103 % of control | [20] 95 % of control and 87 % of control | [8] 86 % of control | [27] 97 % of control | [9] 89 % of control | [28] 91 % of control | [10] 91 % of control | [29] 93 % of control

Cc1cc(N=Nc2ccc(N(C)C)cc2)ccn1
inactive: [15] 101 % of control | [17] 102 % of control | [19] 91 % of control

CC(C)n1cc2cc([N+](=O)[O-])ccc2n1
inactive: [5] 91 % of control | [6] 97 % of control | [16] 97 % of control

CN(C)c1n[nH]c(N=[N+]=[N-])n1
inactive: [27] 104 % of control | [28] 90 % of control | [29] 104 % of control

Cn1c(=O)c2[nH]c(CCCSSCCCc3nc4c([nH]3)c(=O)n(C)c(=O)n4C)nc2n(C)c1=O
inactive: [30] 96 % of control | [31] 96 % of control | [32] 96 % of control

O=c1[nH]c2ccccc2c(=O)o1
inactive: [30] 96 % of control | [31] 89 % of control | [32] 89 % of control

COc1ccccc1-n1c(O)c(N=Nc2ccc(Cl)cc2)c(=O)n(-c2ccc(C)cc2)c1=S
inactive: [24] 98 % of control | [25] 96 % of control | [26] 105 % of control

CCOC(=O)Nc1cc(NCC(O)CN(C)c2ccc(Cl)cc2)c([N+](=O)[O-])c(N)n1 (stereo unspecified)
inactive: [8] 92 % of control | [9] 86 % of control | [10] 89 % of control

CCCCC(CC)(CCN)CCCC
inactive: dose: 5.0 mg/kg/injection, schedule: Q01DX001 (ip), vehicle: carboxymethylcellulose (CMC) 102 % of control | dose: 10.0 mg/kg/injection, schedule: Q01DX001 (ip), vehicle: carboxymethylcellulose (CMC) 104 % of control | dose: 20.0 mg/kg/injection, schedule: Q01DX001 (ip), vehicle: carboxymethylcellulose (CMC) 91 % of control

CC1(C)CNC(C(=O)O)C1 (stereo unspecified)
inactive: [21] 100 % of control | [11] 96 % of control | [7] 96 % of control | [12] 95 % of control | [14] 98 % of control

Reference: PubChem BioAssay AID248 (DTP/NCI, 2004)
